The values below come from publication PMC5391474, “Investigation of the Role of Protein Kinase D in Human Rhinovirus Replication” (Journal of Virology, 2017).

The inhibition is the drop in the measured response relative to a control, in per cent.

Test in all cases: biochemical
Design in all cases: in vitro kinase selectivity panel, protein and lipid kinases, single concentration, ATP at Km
What all share (details): ATP at Km

One test concerns the target T1, PIK3CA / p85 (h) (Homo sapiens, UniProt P42336).
T1 construct: p110alpha/p85
As for the experimental part: (§1) CRT0066101 was described previously ([48]) and was purchased for this study from Tocris, with a purity of 99.9%. CRT0066101 (XX-209) and compound XX-050 were synthesized as previously described ([68]). CRT0066051 (Y-095) was also synthesized as previously described ([69]). […] CRT0066101 can also be obtained in larger quantities from Ximbio. Inhibitors were tested in in vitro PKD kinase assays and cellular assays on PANC1 cells as previously described ([48]). The selectivity of the three PKD inhibitors was determined against a panel of protein and lipid kinases by Eurofins and the MRC PPU International Centre for Kinase Profiling (http://www.kinase-screen.mrc.ac.uk), respectively. Each inhibitor was tested at a single concentration of 1 μM and at an ATP concentration equivalent to the Km for each kinase. Having shown that HRV infection appears to activate PKD, we went on to explore the influence of chemical inhibitors of PKD on HRV replication. The compound CRT0066101 is a specific and potent PKD inhibitor that has been used in studies exploring its potential as an anticancer target ([48], [51]). This inhibitor has a 50% inhibitory concentration (IC50) of 1 nM against purified PKD in biochemical assays and a 50% effective concentration (EC50) of 1 μM in a cell-based assay (Table 1). We pretreated HeLa cells with increasing concentrations of the drug for 1 h followed by infection with HRV16. Viral replication was subsequently measured at 6 hpi by quantitative real-time PCR (qRT-PCR) (Fig. 2A) and by Western blotting using an antibody against the viral nonstructural protein 2C (Fig. 2B). […] Furthermore, we tested two novel and structurally different PKD inhibitors (CRT0066051 and XX-050) (Table 1) and confirmed that they too inhibited HRV 2C expression although with different potencies (Fig. 2D). Kinase selectivity profiling of all three PKD inhibitors was performed against a panel of protein and lipid kinases at a drug concentration of 1 μM and at an ATP concentration equivalent to the Km of each kinase (see Table S1 in the supplemental material). […] Since PKD is known to be involved in regulating the architecture of the Golgi apparatus, we confirmed the pharmacodynamic effect of these inhibitors by demon

In another test the target is T2, cKit(V560G)(h) (Homo sapiens, UniProt P10721, V560G).
T2 construct: gene KIT
The method, then:
as §1

The target of another test is NEK2(h) (Homo sapiens, UniProt P51955). As for the experimental part:
as §1

The next test concerns the target Axl(h) (Homo sapiens, UniProt P30530). The method, then: as §1
In a further test the target is T3, Abl(h) (Homo sapiens, UniProt P00519).
T3 construct: gene ABL1
The method, then:
as §1

The next test concerns the target T4, IGF-1R(h) (Homo sapiens, UniProt P08069).
T4 construct: gene IGF1R
As for the experimental part: as §1

The next test has as its target FGFR3(h) (Homo sapiens, UniProt P22607). As for the experimental part: as §1
For the next test, the target named is T5, PIK4A (Homo sapiens, UniProt P42356).
T5 construct: gene PI4KA
The method, then:
as §1

The next test has as its target T6, PIK3CB / p85 (h) (Homo sapiens, UniProt P42338).
T6 construct: p110beta/p85
The method, then:
as §1

For another test, the target named is FGFR4(h) (Homo sapiens, UniProt P22455). As for the experimental part:
as §1

The target in another test is JAK2(h) (Homo sapiens, UniProt O60674). The method, then:
as §1

A further test concerns the target CSK(h) (Homo sapiens, UniProt P41240). As for the experimental part: as §1
The next test has as its target T7, ZIPK(h) (Homo sapiens, UniProt O43293).
T7 construct: gene DAPK3
As for the experimental part:
as §1

A further test has as its target DAPK1(h) (Homo sapiens, UniProt P53355). As for the experimental part: as §1
For the next test, the target named is T8, Aurora-A(h) (Homo sapiens, UniProt O14965).
T8 construct: gene AURKA
As for the experimental part: as §1

Another test has as its target CHKB (Homo sapiens, UniProt Q9Y259). The method, then:
as §1

The target of a further test is T9, CK2(h) (Homo sapiens, UniProt P68400).
T9 construct: gene CSNK2A1
The method, then: as §1

T6 sequence (P42338 whole entry): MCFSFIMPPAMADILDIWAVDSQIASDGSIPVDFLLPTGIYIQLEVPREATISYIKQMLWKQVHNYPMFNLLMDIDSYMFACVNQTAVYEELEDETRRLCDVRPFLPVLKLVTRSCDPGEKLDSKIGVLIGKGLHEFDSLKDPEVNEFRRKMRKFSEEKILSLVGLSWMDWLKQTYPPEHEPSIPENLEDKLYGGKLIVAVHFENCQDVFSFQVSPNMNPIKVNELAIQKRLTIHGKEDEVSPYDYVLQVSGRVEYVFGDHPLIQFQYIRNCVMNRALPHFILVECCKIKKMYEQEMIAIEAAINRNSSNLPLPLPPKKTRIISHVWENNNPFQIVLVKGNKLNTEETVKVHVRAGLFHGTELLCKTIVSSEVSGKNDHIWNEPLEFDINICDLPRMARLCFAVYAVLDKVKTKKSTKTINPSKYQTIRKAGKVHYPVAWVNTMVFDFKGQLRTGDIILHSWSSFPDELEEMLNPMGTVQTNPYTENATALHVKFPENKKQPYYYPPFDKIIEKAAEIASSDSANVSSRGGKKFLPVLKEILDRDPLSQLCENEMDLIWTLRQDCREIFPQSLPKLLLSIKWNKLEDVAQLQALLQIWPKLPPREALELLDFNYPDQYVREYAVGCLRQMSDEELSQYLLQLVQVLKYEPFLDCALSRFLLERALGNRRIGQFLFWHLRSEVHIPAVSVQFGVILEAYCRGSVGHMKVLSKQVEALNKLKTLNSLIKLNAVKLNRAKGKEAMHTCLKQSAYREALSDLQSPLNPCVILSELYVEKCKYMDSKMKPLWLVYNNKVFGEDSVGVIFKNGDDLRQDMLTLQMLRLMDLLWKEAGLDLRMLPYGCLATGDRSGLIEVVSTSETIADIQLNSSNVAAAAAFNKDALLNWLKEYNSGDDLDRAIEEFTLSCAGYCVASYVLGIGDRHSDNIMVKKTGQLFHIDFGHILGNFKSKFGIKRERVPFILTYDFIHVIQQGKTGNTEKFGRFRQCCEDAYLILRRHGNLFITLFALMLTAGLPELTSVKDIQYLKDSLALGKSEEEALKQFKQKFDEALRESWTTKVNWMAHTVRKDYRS
T6 sequence (P27986 whole entry partner): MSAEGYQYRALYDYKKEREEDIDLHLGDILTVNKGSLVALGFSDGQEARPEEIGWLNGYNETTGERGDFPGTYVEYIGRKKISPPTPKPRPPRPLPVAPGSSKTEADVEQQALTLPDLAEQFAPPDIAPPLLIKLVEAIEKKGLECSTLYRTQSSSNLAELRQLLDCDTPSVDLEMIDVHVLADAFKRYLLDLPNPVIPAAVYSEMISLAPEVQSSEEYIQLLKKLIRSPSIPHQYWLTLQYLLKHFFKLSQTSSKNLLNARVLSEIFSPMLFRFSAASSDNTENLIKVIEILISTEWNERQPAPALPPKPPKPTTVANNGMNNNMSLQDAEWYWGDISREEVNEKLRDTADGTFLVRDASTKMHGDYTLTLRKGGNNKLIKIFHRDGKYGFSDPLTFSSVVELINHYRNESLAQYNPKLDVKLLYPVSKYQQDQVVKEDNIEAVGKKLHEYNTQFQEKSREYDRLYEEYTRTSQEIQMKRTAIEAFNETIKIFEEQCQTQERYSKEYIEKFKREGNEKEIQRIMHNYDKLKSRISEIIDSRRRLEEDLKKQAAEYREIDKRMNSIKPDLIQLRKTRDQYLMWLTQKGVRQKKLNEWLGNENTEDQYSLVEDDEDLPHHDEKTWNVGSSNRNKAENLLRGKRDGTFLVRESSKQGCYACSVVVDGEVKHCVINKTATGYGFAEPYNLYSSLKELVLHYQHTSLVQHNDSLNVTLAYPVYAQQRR
T1 sequence (P42336 whole entry): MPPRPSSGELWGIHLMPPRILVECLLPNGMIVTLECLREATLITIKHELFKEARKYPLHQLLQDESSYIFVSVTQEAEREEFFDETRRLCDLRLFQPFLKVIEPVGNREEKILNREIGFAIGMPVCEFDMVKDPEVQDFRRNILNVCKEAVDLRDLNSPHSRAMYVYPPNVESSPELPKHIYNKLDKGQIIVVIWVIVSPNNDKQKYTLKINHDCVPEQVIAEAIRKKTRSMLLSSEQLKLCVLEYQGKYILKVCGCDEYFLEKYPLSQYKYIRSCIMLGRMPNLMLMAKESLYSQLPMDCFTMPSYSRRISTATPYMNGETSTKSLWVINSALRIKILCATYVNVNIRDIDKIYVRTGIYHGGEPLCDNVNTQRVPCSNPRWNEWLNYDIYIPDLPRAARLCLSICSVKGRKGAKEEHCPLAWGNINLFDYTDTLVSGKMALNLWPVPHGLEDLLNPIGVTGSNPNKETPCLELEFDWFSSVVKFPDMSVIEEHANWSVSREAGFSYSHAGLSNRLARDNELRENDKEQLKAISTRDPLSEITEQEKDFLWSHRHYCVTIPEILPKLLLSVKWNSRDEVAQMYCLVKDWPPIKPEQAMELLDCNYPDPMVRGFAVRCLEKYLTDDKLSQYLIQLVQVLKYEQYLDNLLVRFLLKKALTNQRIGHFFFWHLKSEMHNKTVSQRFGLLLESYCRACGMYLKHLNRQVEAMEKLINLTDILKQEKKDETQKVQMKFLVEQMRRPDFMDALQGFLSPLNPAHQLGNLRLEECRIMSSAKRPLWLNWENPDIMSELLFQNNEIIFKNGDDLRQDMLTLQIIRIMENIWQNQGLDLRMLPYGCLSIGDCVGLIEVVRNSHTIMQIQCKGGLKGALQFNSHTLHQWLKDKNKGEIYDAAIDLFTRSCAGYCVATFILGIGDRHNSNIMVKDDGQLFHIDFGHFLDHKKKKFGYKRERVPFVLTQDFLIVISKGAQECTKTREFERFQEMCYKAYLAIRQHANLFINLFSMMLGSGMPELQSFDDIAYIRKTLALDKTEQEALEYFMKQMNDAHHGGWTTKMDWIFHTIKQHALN
T1 sequence (P27986 whole entry partner): as the sequence (P27986 whole entry partner) above
Sequence of CSK(h) (P41240 whole entry): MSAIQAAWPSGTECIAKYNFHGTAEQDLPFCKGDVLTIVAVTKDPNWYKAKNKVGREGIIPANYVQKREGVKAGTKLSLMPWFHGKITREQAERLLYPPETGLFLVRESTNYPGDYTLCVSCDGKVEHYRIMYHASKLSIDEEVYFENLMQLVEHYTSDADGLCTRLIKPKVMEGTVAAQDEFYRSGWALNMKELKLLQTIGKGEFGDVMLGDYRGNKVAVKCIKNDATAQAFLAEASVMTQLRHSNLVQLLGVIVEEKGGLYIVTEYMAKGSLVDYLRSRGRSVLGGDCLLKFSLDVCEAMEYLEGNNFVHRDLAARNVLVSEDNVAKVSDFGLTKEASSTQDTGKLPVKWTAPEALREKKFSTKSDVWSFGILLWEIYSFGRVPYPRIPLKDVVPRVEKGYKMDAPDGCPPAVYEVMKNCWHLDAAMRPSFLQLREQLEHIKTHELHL
Sequence of FGFR4(h) (P22455 whole entry): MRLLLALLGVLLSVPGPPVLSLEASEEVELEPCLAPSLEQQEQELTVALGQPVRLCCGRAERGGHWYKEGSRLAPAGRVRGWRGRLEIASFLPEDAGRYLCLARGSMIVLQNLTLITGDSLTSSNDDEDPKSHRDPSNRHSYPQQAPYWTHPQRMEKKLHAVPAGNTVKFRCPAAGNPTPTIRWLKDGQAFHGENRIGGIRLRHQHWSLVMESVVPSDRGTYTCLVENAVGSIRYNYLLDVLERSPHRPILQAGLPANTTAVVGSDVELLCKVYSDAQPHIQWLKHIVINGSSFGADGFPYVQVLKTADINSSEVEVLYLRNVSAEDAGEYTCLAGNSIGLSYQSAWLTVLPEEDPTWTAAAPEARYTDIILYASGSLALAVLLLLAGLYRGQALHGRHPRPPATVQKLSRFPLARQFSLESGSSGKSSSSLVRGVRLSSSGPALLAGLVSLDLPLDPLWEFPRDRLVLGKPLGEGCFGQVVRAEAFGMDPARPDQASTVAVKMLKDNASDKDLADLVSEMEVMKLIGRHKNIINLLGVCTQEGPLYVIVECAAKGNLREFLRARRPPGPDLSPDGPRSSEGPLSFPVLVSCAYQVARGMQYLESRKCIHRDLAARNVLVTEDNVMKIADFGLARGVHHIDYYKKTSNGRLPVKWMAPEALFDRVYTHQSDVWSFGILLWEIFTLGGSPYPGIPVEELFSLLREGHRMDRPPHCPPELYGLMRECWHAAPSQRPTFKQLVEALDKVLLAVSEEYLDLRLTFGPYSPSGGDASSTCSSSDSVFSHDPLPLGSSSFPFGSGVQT
Sequence of Axl(h) (P30530 whole entry): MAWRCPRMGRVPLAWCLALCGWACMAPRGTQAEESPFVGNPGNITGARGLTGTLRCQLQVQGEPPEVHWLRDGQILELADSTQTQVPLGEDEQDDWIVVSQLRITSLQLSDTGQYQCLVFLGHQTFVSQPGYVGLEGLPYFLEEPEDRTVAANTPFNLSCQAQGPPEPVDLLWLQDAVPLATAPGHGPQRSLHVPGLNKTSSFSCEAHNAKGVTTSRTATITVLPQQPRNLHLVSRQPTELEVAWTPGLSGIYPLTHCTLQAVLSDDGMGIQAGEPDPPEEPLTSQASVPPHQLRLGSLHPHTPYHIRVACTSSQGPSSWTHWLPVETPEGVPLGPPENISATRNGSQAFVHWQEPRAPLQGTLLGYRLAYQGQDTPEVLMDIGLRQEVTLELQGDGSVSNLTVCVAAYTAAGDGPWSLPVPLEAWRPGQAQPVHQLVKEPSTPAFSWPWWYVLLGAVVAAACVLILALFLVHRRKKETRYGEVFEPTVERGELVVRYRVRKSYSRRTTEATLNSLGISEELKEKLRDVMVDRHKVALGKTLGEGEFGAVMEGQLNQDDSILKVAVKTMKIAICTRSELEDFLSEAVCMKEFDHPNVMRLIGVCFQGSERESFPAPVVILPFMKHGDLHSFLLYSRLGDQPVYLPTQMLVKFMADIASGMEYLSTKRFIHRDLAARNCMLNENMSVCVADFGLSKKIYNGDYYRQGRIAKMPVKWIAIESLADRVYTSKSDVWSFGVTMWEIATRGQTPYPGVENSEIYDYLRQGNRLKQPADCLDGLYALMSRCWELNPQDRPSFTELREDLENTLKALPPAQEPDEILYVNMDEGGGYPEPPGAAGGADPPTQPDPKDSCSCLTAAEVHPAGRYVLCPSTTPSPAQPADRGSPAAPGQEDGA

With `CC[C@@H](N)CNc1ccnc(-c2cc(-c3cnn(C)c3)ccc2O)n1` [CRT0066101], the inhibition at 1 µM against PIK3CA / p85 (h) is -1%; on cKit(V560G)(h), 24%; against NEK2(h), 0%; at Axl(h), 39%; at Abl(h) it was -13%; against IGF-1R(h), -14%. In addition, the inhibition at 1 µM against FGFR3(h) was -2%; on PIK4A, -11%; against PIK3CB / p85 (h) it was 0%; against FGFR4(h), -2%; against JAK2(h), 10%; on CSK(h), 7%. The inhibition at 1 µM on ZIPK(h) is 7%; against DAPK1(h), -8%; on Aurora-A(h), -1%; against CHKB it was 3%; at CK2(h) it was 19%.
